Data taken from article PMC10315696, “PSMA-GCK01: A Generator-Based ^99mTc/^188Re Theranostic Ligand for the Prostate-Specific Membrane Antigen” (Journal of Nuclear Medicine, 2023).
*1 amine or outer side, *2 acyl side, *3 side chain or, on linkers, in order; H or OH if unused. Where a SMILES comes first, the peptide text is derived from it. [ ]: non-standard residue; d: D form. The star is where a group is joined. X2 = O=C(O)CCC(NC(=O)NC(CCCCN*)C(=O)O)C(=O)O; 2Nal = N[CH](Cc1ccc2ccccc2c1)C(=O)O; X1 = O=C(C1CCC(N[*:1])CC1)[*:2]; Mercaptoacetyl = O=C(CS)*

Columns and labels:
mice = test: Toxicologic investigation (OECD guideline)
Procedure: The evaluation was conducted using well-known standard methods ([16],[17]).

[1] = tested on: patients with metastatic castration-resistant prostate cancer; test: Clinical imaging and therapy under compassionate care; format: in vivo, humans
Procedure: After giving written informed consent, 3 patients with metastatic castration-resistant prostate cancer received PSMA-radioligand therapy (RLT) and the related companion diagnostic under compassionate-care regulations. Prospective clinical trial registration is not required for compassionate care that is performed under an individual medical indication.
The timeline of imaging time points is illustrated in Figure 2.

Row | Compound | mortality (mice; mice) | dose without toxicologic effect (mice; mice, third-party preclinical research organization) | organ weights or macroscopic observations (mice; terminal or recovery euthanasia) | liver-to-kidney uptake ratio compared with PSMA-617 ([1]; initially, intraindividual comparison) | clearance route ([1]; dual-photopeak imaging)
1 | O=C(O)CCC(NC(=O)NC(CCCCNC(=O)C(Cc1ccc2ccccc2c1)NC(=O)C1CCC(NC(=O)C(CO)NC(=O)C(CO)NC(=O)C(CO)NC(=O)CS)CC1)C(=O)O)C(=O)O (centres unmarked) [PSMA-GCK01] (Mercaptoacetyl-SSS[X1][2Nal]-X2; configuration not given here) | No test article–related mortality | up to 2 mg/kg | No differences | higher | –
2 | O=C([O-])CN1CCN(CC(=O)[O-])CCN(CC(=O)NCC2CCC(C(=O)N[C@@H](Cc3ccc4ccccc4c3)C(=O)NCCCC[C@H](NC(=O)N[C@@H](CCC(=O)O)C(=O)O)C(=O)O)CC2)CCN(CC(=O)[O-])CC1.[177Lu+3] (some centres unmarked) [^177Lu-PSMA-617, reference compound] | – | – | – | – | combined renal and hepatointestinal clearance route
